Laboratory results: ChEMBL document CHEMBL3885881, “DrugMatrix”

Species: Rattus norvegicus
Test: DrugMatrix - Regimen: Daily Repeat
Format: toxicity, organism-based, Sprague-Dawley
Design: regimen Daily Repeat, gender Male, age 6-8 weeks
Settings: in vivo, po, route oral GAVAGE, vehicle .5 % CMC; for ABSOLUTE BASOPHIL / ABSOLUTE EOSINOPHIL / ABSOLUTE LYMPHOCYTE / ABSOLUTE MONOCYTE / ABSOLUTE SEGMENTED NEUTROPHIL / BASOPHIL / EOSINOPHIL / ERYTHROCYTE COUNT / HEMATOCRIT / HEMOGLOBIN / LEUKOCYTE COUNT / LYMPHOCYTE / MEAN CORPUSCULAR HEMOGLOBIN / MEAN CORPUSCULAR HEMOGLOBIN CONCENTRATION / MEAN CORPUSCULAR VOLUME / MONOCYTE / NEUTROPHIL / NUCLEATED RED BLOOD CELLS / PLATELET COUNT: tissue Blood; for ALANINE AMINOTRANSFERASE / ALBUMIN / ALKALINE PHOSPHATASE / ASPARTATE AMINOTRANSFERASE / BLOOD UREA NITROGEN / CARBON DIOXIDE / CHLORIDE / CHOLESTEROL / CREATINE PHOSPHOKINASE / CREATININE / GLUCOSE / LACTATE DEHYDROGENASE / LIPASE / PHOSPHORUS / POTASSIUM / SODIUM / TOTAL BILIRUBIN / TOTAL PROTEIN / URIC ACID: tissue Plasma
[1] = 0 mg/kg, 72 h, dose level Control, time 3 day
[2] = 0 mg/kg, 120 h, dose level Control, time 5 day
[3] = 15 mg/kg, 72 h, dose level Low, time 3 day
[4] = 15 mg/kg, 120 h, dose level Low, time 5 day

Compound: C[C@@H]1O[C@@H](O[C@H]2C[C@@H](O)[C@]3(CO)[C@H]4[C@H](O)C[C@]5(C)[C@@H](C6=CC(=O)OC6)CC[C@]5(O)[C@@H]4CC[C@]3(O)C2)[C@H](O)[C@H](O)[C@H]1O [OUABAIN]
- ABSOLUTE BASOPHIL [1]: 0 CELLS/uL
- ABSOLUTE EOSINOPHIL [1]: 130.33 CELLS/uL
- ABSOLUTE LYMPHOCYTE [1]: 10030.67 CELLS/uL
- ABSOLUTE MONOCYTE [1]: 41 CELLS/uL
- ABSOLUTE SEGMENTED NEUTROPHIL [1]: 1298 CELLS/uL
- BASOPHIL [1]: 0%
- EOSINOPHIL [1]: 1%
- ERYTHROCYTE COUNT [1]: 5.22 x10E6/uL
- HEMATOCRIT [1]: 33.53%
- HEMOGLOBIN [1]: 12.73 G/DL
- LEUKOCYTE COUNT [1]: 11.5 x10E3/uL
- LYMPHOCYTE [1]: 87.67%
- MEAN CORPUSCULAR HEMOGLOBIN [1]: 24.45 pg
- MEAN CORPUSCULAR HEMOGLOBIN CONCENTRATION [1]: 37.97 G/DL
- MEAN CORPUSCULAR VOLUME [1]: 64.33 fL
- MONOCYTE [1]: 0.33%
- NEUTROPHIL [1]: 11%
- NUCLEATED RED BLOOD CELLS [1]: 0 /100WBC
- PLATELET COUNT [1]: 1310.5 x10E3/uL
- ALANINE AMINOTRANSFERASE [1]: 52 u/L
- ALBUMIN [1]: 4.22 G/DL
- ALKALINE PHOSPHATASE [1]: 340.17 u/L
- ASPARTATE AMINOTRANSFERASE [1]: 87.5 u/L
- BLOOD UREA NITROGEN [1]: 15.17 mg/dL
- CARBON DIOXIDE [1]: 25.5 mmol/L
- CHLORIDE [1]: 101.83 MEQ/L
- CHOLESTEROL [1]: 68.17 mg/dL
- CREATINE PHOSPHOKINASE [1]: 379.67 u/L
- CREATININE [1]: 0.17 mg/dL
- GLUCOSE [1]: 181.67 mg/dL
- LACTATE DEHYDROGENASE [1]: 256.17 u/L
- LIPASE [1]: 8 u/L
- PHOSPHORUS [1]: 12.1 mg/dL
- POTASSIUM [1]: 5.88 MEQ/L
- SODIUM [1]: 143.67 MEQ/L
- TOTAL BILIRUBIN [1]: 0.18 mg/dL
- TOTAL PROTEIN [1]: 5.92 G/DL
- URIC ACID [1]: 1.7 mg/dL
- ABSOLUTE BASOPHIL [2]: 0 CELLS/uL
- ABSOLUTE EOSINOPHIL [2]: 31 CELLS/uL
- ABSOLUTE LYMPHOCYTE [2]: 9599.17 CELLS/uL
- ABSOLUTE MONOCYTE [2]: 52.83 CELLS/uL
- ABSOLUTE SEGMENTED NEUTROPHIL [2]: 1050.33 CELLS/uL
- BASOPHIL [2]: 0%
- EOSINOPHIL [2]: 0.33%
- ERYTHROCYTE COUNT [2]: 5.53 x10E6/uL
- HEMATOCRIT [2]: 35.8%
- HEMOGLOBIN [2]: 13.53 G/DL
- LEUKOCYTE COUNT [2]: 10.73 x10E3/uL
- LYMPHOCYTE [2]: 89%
- MEAN CORPUSCULAR HEMOGLOBIN [2]: 24.47 pg
- MEAN CORPUSCULAR HEMOGLOBIN CONCENTRATION [2]: 37.82 G/DL
- MEAN CORPUSCULAR VOLUME [2]: 64.7 fL
- MONOCYTE [2]: 0.5%
- NEUTROPHIL [2]: 10.17%
- NUCLEATED RED BLOOD CELLS [2]: 0 /100WBC
- PLATELET COUNT [2]: 1028.5 x10E3/uL
- ALANINE AMINOTRANSFERASE [2]: 45.33 u/L
- ALBUMIN [2]: 4.33 G/DL
- ALKALINE PHOSPHATASE [2]: 351.83 u/L
- ASPARTATE AMINOTRANSFERASE [2]: 73.5 u/L
- BLOOD UREA NITROGEN [2]: 17.83 mg/dL
- CARBON DIOXIDE [2]: 24.67 mmol/L
- CHLORIDE [2]: 100 MEQ/L
- CHOLESTEROL [2]: 67 mg/dL
- CREATINE PHOSPHOKINASE [2]: 284 u/L
- CREATININE [2]: 0.2 mg/dL
- GLUCOSE [2]: 152.33 mg/dL
- LACTATE DEHYDROGENASE [2]: 108.67 u/L
- LIPASE [2]: 8.17 u/L
- PHOSPHORUS [2]: 11.17 mg/dL
- POTASSIUM [2]: 6.14 MEQ/L
- SODIUM [2]: 144.68 MEQ/L
- TOTAL BILIRUBIN [2]: 0.22 mg/dL
- TOTAL PROTEIN [2]: 6.08 G/DL
- URIC ACID [2]: 1.27 mg/dL
- ABSOLUTE BASOPHIL [3]: 0 CELLS/uL
- ABSOLUTE EOSINOPHIL [3]: 189.33 CELLS/uL
- ABSOLUTE LYMPHOCYTE [3]: 10886.33 CELLS/uL
- ABSOLUTE MONOCYTE [3]: 47.33 CELLS/uL
- ABSOLUTE SEGMENTED NEUTROPHIL [3]: 1443.67 CELLS/uL
- BASOPHIL [3]: 0%
- EOSINOPHIL [3]: 1.33%
- ERYTHROCYTE COUNT [3]: 5.55 x10E6/uL
- HEMATOCRIT [3]: 35.67%
- HEMOGLOBIN [3]: 13.2 G/DL
- LEUKOCYTE COUNT [3]: 12.57 x10E3/uL
- LYMPHOCYTE [3]: 86.67%
- MEAN CORPUSCULAR HEMOGLOBIN [3]: 23.77 pg
- MEAN CORPUSCULAR HEMOGLOBIN CONCENTRATION [3]: 37 G/DL
- MEAN CORPUSCULAR VOLUME [3]: 64.2 fL
- MONOCYTE [3]: 0.33%
- NEUTROPHIL [3]: 11.67%
- NUCLEATED RED BLOOD CELLS [3]: 0 /100WBC
- PLATELET COUNT [3]: 1296 x10E3/uL
- ALANINE AMINOTRANSFERASE [3]: 52.67 u/L
- ALBUMIN [3]: 4.2 G/DL
- ALKALINE PHOSPHATASE [3]: 382.67 u/L
- ASPARTATE AMINOTRANSFERASE [3]: 73.67 u/L
- BLOOD UREA NITROGEN [3]: 15 mg/dL
- CARBON DIOXIDE [3]: 27 mmol/L
- CHLORIDE [3]: 99 MEQ/L
- CHOLESTEROL [3]: 70.33 mg/dL
- CREATINE PHOSPHOKINASE [3]: 215.33 u/L
- CREATININE [3]: 0.16 mg/dL
- GLUCOSE [3]: 166.33 mg/dL
- LACTATE DEHYDROGENASE [3]: 88 u/L
- LIPASE [3]: 8 u/L
- PHOSPHORUS [3]: 12.23 mg/dL
- POTASSIUM [3]: 6.54 MEQ/L
- SODIUM [3]: 144.1 MEQ/L
- TOTAL BILIRUBIN [3]: 0.27 mg/dL
- TOTAL PROTEIN [3]: 5.93 G/DL
- URIC ACID [3]: 1.97 mg/dL
- ABSOLUTE BASOPHIL [4]: 0 CELLS/uL
- ABSOLUTE EOSINOPHIL [4]: 66.67 CELLS/uL
- ABSOLUTE LYMPHOCYTE [4]: 12127.33 CELLS/uL
- ABSOLUTE MONOCYTE [4]: 105.67 CELLS/uL
- ABSOLUTE SEGMENTED NEUTROPHIL [4]: 1600.33 CELLS/uL
- BASOPHIL [4]: 0%
- EOSINOPHIL [4]: 0.67%
- ERYTHROCYTE COUNT [4]: 5.76 x10E6/uL
- HEMATOCRIT [4]: 36.63%
- HEMOGLOBIN [4]: 13.7 G/DL
- LEUKOCYTE COUNT [4]: 13.9 x10E3/uL
- LYMPHOCYTE [4]: 88.33%
- MEAN CORPUSCULAR HEMOGLOBIN [4]: 23.77 pg
- MEAN CORPUSCULAR HEMOGLOBIN CONCENTRATION [4]: 37.4 G/DL
- MEAN CORPUSCULAR VOLUME [4]: 63.6 fL
- MONOCYTE [4]: 0.67%
- NEUTROPHIL [4]: 10.33%
- NUCLEATED RED BLOOD CELLS [4]: 0 /100WBC
- PLATELET COUNT [4]: 1337.67 x10E3/uL
- ALANINE AMINOTRANSFERASE [4]: 44 u/L
- ALBUMIN [4]: 4.3 G/DL
- ALKALINE PHOSPHATASE [4]: 417.67 u/L
- ASPARTATE AMINOTRANSFERASE [4]: 84.33 u/L
- BLOOD UREA NITROGEN [4]: 17.33 mg/dL
- CARBON DIOXIDE [4]: 25.67 mmol/L
- CHLORIDE [4]: 102.33 MEQ/L
- CHOLESTEROL [4]: 74.67 mg/dL
- CREATINE PHOSPHOKINASE [4]: 260 u/L
- CREATININE [4]: 0.26 mg/dL
- GLUCOSE [4]: 167.33 mg/dL
- LACTATE DEHYDROGENASE [4]: 187.67 u/L
- LIPASE [4]: 8.67 u/L
- PHOSPHORUS [4]: 11.83 mg/dL
- POTASSIUM [4]: 6.55 MEQ/L
- SODIUM [4]: 145.07 MEQ/L
- TOTAL BILIRUBIN [4]: 0.17 mg/dL
- TOTAL PROTEIN [4]: 6.2 G/DL
- URIC ACID [4]: 1.8 mg/dL
